Measurements from patent publication US20120004205A1, “IL-13 INDUCED GENE SIGNATURE FOR EOSINOPHILIC ESOPHAGITIS” (Cincinnati Children's Hospital Medical Center, priority 2008, published 2012).

How the values were obtained:
[1] = system: TE-6 esophageal cell line; assay: Eotaxin-3 mRNA expression after IL-13 stimulation, real-time PCR; type: cell-based, human; details: TE-6 cells, IL-13 100 ng/mL
[2] = system: primary esophageal keratinocytes from EE patients; assay: IL-13-induced eotaxin expression ex vivo, real-time PCR; type: cell-based, human
Source text: (§1) Briefly, biopsies were digested with trypsin twice.

[3] = system: TE-7 esophageal cell line; assay: Eotaxin-3 mRNA expression after IL-13 stimulation, real-time PCR; type: cell-based, human; details: TE-7 cells, IL-13 100 ng/mL
[4] = system: primary esophageal keratinocytes from EE patients; assay: Eotaxin-3 protein release into supernatant ex vivo, ELISA; type: cell-based, human; details: IL-13 100 ng/mL
Description: as §1
(§2) Eotaxin-1, 2 and 3 Duo set ELISA were performed according to the manufacturer's instruction (R&D) and as previously described Blanchard, C. et al., (2006) J. Clin. Invest. 116: 536-547. IL-13 Quantikine® Kit (R&D) was used to quantify IL-13 protein levels. The detection limits were respectively […] for eotaxins-1, -2, -3 and IL-13, respectively. The optical density of each well was read at a wavelength of 450 nm.

TE-7 cells [5] = assay: Eotaxin-3 protein released in culture supernatant, ELISA; type: cell-based, human; details: IL-13 100 ng/mL for 24 hours
Description: as §2

TE-13 cells = assay: as above; type: cell-based, human; details: IL-13 100 ng/mL for 24 hours
Description: as §2

human eotaxin-3 promoter = assay: Eotaxin-3 promoter luciferase reporter in transfected TE-7 cells, IL-13 stimulation; type: cell-based
Description: Plasmids were constructed or obtained as described before Blanchard, C. et al., (2005) Int. J. Biochem Cell Biol. 37: 2559-2573. Briefly, plasmid denoted P800, P500 and P100 contained respectively the first 800 by 500 by or 100 by of the human eotaxin-3 gene promoter (pEO3) subcloned into KpnI/HindIII-digested pGL3-Basic (Promega) as previously described Blanchard, C. et al., (2005) Int. J. Biochem. Cell Biol. 37: […]. Directed mutagenesis of the eotaxin-3 promoter was performed using Quickchange Kit from Stratagene according to the manufacturer's instructions using 2 primer sets: (first set) 5′-CCCAACCACAAGAAggtacc[…]-3′ and 5′-[…] ggtacc TTCTGTGGTTGGG-3′ which include a KpnI restriction site in the -89 TTCtctcgGAA STAT6 consensus site and (second set) 5′-GTAACTTAGTTCAG ggatcc […]-3′ and 5′-[…] ggatcc CTGAACTAAGTTAC-3′ which include a […] restriction site in the -698 TTCactgGAA STAT6 consensus site. The STAT6:ER plasmid was constructed in the pCDNA3 plasmid as previously described Kamogawa, Y. et al., (1998) J. Immunol. 161:1074-1077.
Approximately 10^4 TE-7 cells per well (24 well plate) were plated on day 1 and transfected by Lipofectamine™ reagent on day 2. Briefly, […] of reporter plasmids were mixed with 3 μl of Lipofectamine™ reagent in […] of serum-free RPMI medium. In all transfection experiments, a plasmid with a Renilla luciferase reporter gene under the control of a thymidine kinase promoter (pHRL-TK, […]) was used as an internal control. In co-transfection experiments with DNSTAT6 or pCDNA3-STAT6:ER (ER-estrogen receptor) plasmids, the empty vectors pCEFL HA or pCDNA3 were added to each set of transfections, respectively, to ensure that each well received the same amount of DNA. Complete medium (0.5 mL) was added and cells were incubated for 48 h to 72 h. The transfection mixture was then replaced with fresh complete medium for an additional 12 h period before cytokine treatment. […] Cells were then lysed and the Firefly and Renilla luciferase activities were measured in a luminometor (Microlite, Dynatec Laboratories, Inc) using the Dual Luciferase Reporter assay system (Promega) in accordance with the manufacturer's instructions.
Immunol. 42: 295-303; Hoeck, J. and Woisetschlager, M., (2001) J. Immunol. 167: 3216-3222; Yuan, Q. et al., (2006) Eur. J. Immunol. 36: 2700-2714. To determine the STAT6 element or elements involved in the eotaxin-3 stimulation observed in esophageal cell lines, the TE-7 cell line was transiently transfected with the full-length eotaxin luciferase reporter plasmid and truncated versions (FIG. 3). […] The TE-7 cell line was transfected with truncated promoter constructs or with a full-length promoter containing specific mutations within the STAT6 binding sites to map the relevant cis-acting promoter sequences (FIG. 3B).

[6] = system: TE-13 esophageal cell line; assay: Eotaxin-3 mRNA expression after IL-13 stimulation, real-time PCR; type: cell-based, human; details: TE-13 cells, IL-13 100 ng/mL
[7] = system: TE-1 esophageal cell line; assay: as above; type: cell-based, human; details: TE-1 cells, IL-13 100 ng/mL
[8] = system: primary esophageal epithelial cells from patients with EE; assay: Global transcript-expression profile (microarray) of IL-13-stimulated primary cells; type: cell-based, human
Description: as §1
(§3) For each patient, one distal esophageal mucosal biopsy sample was immersed in RNA, later RNA stabilization reagent (Qiagen) and stored at 4 C. for <15 days. Total RNA was extracted using the RNAeasy Mini Kit (Qiagen) according to the manufacturer's recommendations. Hybridization to DNA microarray was performed by the MicroarrayCore at Cincinnati Children's Hospital Medical Center, as previously reported Blanchard, C. et al., (2006) J. Clin. Invest. 116: 536-547. The genome wide human Affymetrix U133A plus 2.0 Genechip® was used, and gene transcript levels were determined using algorithms in the Microarray Analysis Suite and GeneSpring software (Silicon Genetics) as previously described Blanchard, C. et al., (2006) J. Clin. Invest. 116: 536-547. […] Response to therapy was defined as <1 eosinophils/high power field (hpf) and no epithelial cell hyperplasia as described herein.
The list of differentially expressed transcripts was subjected to gene ontology analysis using DAVID (database for annotation, visualization and integrated discovery) and EASE (expression analysis systematic explorer), a web-based (hyper text transfer protocol davidabccncifcrfgov) application that allows access to a relational database of functional annotations.
Primary esophageal epithelial cells from the esophagi of patients with EE were cultured and stimulated with 100 ng/mL IL-13 for 48 hours to identify IL-13-induced esophageal epithelial genes. The mRNA was subjected to global transcript-expression profile analysis and normalized pair wise to unstimulated controls. Genes were filtered to fold change in biopsy specimens from patients with EE compared with those from healthy patients and IL-13 stimulated epithelial cells. A highly significant positive correlation (P<0.0001, Spearman) between modified genes in biopsy specimens from patients with EE and in IL-13-stimulated keratinocytes was observed (FIG. 4C). […] Blanchard, C. et al., (2006) J. Clin. Invest.

TE-7 cells [9] = assay: Eotaxin-3 mRNA stability with actinomycin-D; type: cell-based, human
eotaxin-3 mRNA = assay: Eotaxin-3 mRNA in esophageal biopsy specimens of FP-treated EE patients, real-time PCR; type: in vivo, human; details: P<0.01
Description: as §3
(§4) (rev) […]; IL-13R2 (396 bp): (fwd): […] (rev) […]; IL-4Rα (335 bp): (fwd): […]
(§5) Wood, N. et al., (2003) J. Exp. Med. 197: 703-709. In patients with EE with successful anti-inflammatory intervention, IL-13 overexperssion can be normalized. […] Similarly, eotaxin-3 mRNA was normalized in FP-responder patients (P<0.01; FIG. 6B). […] Remarkably, 98% of the EE transcriptome was reversed to expression levels detected in biopsy specimens of healthy patients (FIG. 6C). […]

IL-13 mRNA = IL-13 mRNA in esophageal biopsy specimens of FP-treated EE patients, real-time PCR; type: in vivo, human; details: patients with EE treated successfully with FP
Description: as §3, §4, §5

patients with EE = details: in vivo; cited from earlier work
EE transcriptome = assay: Microarray analysis of the EE transcriptome in successfully treated EE patients; type: in vivo, human
Description: as §3, with “herein. […] Wood, N. et al., (2003) J. Exp. Med. 197: 703-709. In patients with EE with successful anti-inflammatory intervention, IL-13 overexperssion can be normalized. […] Similarly, eotaxin-3 mRNA was normalized in FP-responder patients (P<0.01; FIG. 6B). […] Remarkably, 98% of the EE transcriptome was reversed to expression levels detected in biopsy specimens of healthy patients (FIG. 6C). […]” for “herein.”

cadherin-26 (CDH26) = assay: Cadherin-26 expression in FP-treated EE patients, real-time PCR; type: in vivo, human; details: P<0.05
Source text: as §4
Wood, N. et al., (2003) J. Exp. Med. 197: 703-709. In patients with EE with successful anti-inflammatory intervention, IL-13 overexperssion can be normalized. […] Similarly, eotaxin-3 mRNA was normalized in FP-responder patients (P<0.01; FIG. 6B). The research next aimed to determine whether the EE transcriptome was also reversible in patients with EE successfully treated with glucocorticoids. Remarkably, 98% of the EE transcriptome was reversed to expression levels detected in biopsy specimens of healthy patients (FIG. 6C). The reversible genes include cell-specific transcripts, including eosinophil, mast cell, lymphocyte, fibroblast, and epithelial genes. In addition, genes involved in cellular recruitment and cell proliferation were also reversible. Although the biopsy specimens had no abnormal microscopic features, 12 genes were still dysregulated (FIG. 6B).

[10] = IL-13 100 ng/mL, 48 hours, P<0.05

Compound: IL-13: cytokine Interleukin 13 (Preprotech) added to culture media to stimulate esophageal cells
- Eotaxin-3 mRNA expression increase [1]: 8 fold
- increase of eotaxin-3 mRNA expression ([2]; 48 hours after 10 ng/mL IL-13): 1000 fold
- increase of eotaxin-3 mRNA expression ([2]; 48 hours after 100 ng/mL IL-13): 10.000 fold
- Eotaxin-3 mRNA expression increase [3]: 77 fold
- release of eotaxin-3 protein into the supernatant [4]: 6.03 ± 0.8 ng/mL
- eotaxin-3 released in the supernatant (TE-7 cells [5]): 2.5 ± 0.7 µg/mL
- eotaxin-3 released in the supernatant (TE-13 cells): 0.55 ± 0.37 µg/mL
- increase of luciferase activity, full-length reporter plasmid (human eotaxin-3 promoter; TE-7, IL-13 10 ng/mL): 2.7+/−0.8 fold
- increase of luciferase activity, full-length reporter plasmid (human eotaxin-3 promoter; TE-7, IL-13 100 ng/mL): 10.8+/−2.2 fold
- IL-13-induced luciferase activity, construct with mutated -89 binding site (human eotaxin-3 promoter; TE-7, after IL-13 stimulation): no increase in luciferase activity
- IL-13-induced promoter activity, construct P100 (truncated proximal STAT6 site) (human eotaxin-3 promoter; TE-7, after IL-13 stimulation): no activity
- IL-13-induced promoter activity, promoter containing 800 or 500 bp (human eotaxin-3 promoter; TE-7, after IL-13 stimulation): full IL-13-induced activity
- Eotaxin-3 mRNA expression increase [6]: 1007 fold
- Eotaxin-3 mRNA expression increase [7]: 4 fold
- genes downregulated by 2-fold or greater ([8]; IL-13 100 ng/mL, 48 hours): 116 genes
- genes downregulated by more than 1.5-fold ([8]; IL-13 100 ng/mL, 48 hours): 553 genes
- genes modified by 2-fold or greater ([8]; IL-13 100 ng/mL, 48 hours): 371 genes
- genes modified by more than 1.5-fold ([8]; IL-13 100 ng/mL, 48 hours): 1333 genes
- genes significantly modified compared with unstimulated cells (P<0.01) ([8]; IL-13 100 ng/mL, 48 hours): 952 genes
- genes significantly modified compared with unstimulated cells (P<0.05) ([8]; IL-13 100 ng/mL, 48 hours): 4698 genes
- genes upregulated by 2-fold or greater ([8]; IL-13 100 ng/mL, 48 hours): 255 genes
- genes upregulated by more than 1.5-fold ([8]; IL-13 100 ng/mL, 48 hours): 780 genes
- IL-13-induced genes overlapping with the EE transcriptome [8, 10]: 126 genes
- share of the EE transcriptome overlapped by IL-13-induced genes [8, 10]: 22%
- involucrin downregulation (microarray) ([8]; IL-13-stimulated cells): 4.8 fold
- TNFAIP6 expression (microarray) ([8]; IL-13-stimulated keratinocytes): highly overexpressed
- cadherin-26 upregulation (microarray) ([8]; IL-13-stimulated keratinocytes): 50 fold
- eotaxin-3 upregulation (microarray) ([8]; IL-13-stimulated keratinocytes): 279 fold
- eotaxin-1 and eotaxin-2 expression (microarray) ([8]; IL-13-treated primary keratinocyte cultures): not overexpressed
- stability of eotaxin-3 mRNA, IL-13 treated versus non-treated (TE-7 cells [9]): not significantly different

Compound: CCC(=O)O[C@]1(C(=O)SCF)[C@H](C)C[C@H]2[C@@H]3C[C@H](F)C4=CC(=O)C=C[C@]4(C)[C@@]3(F)[C@@H](O)C[C@@]21C [FP, S-fluoromethyl-6α,9-difluoro-11β-hydroxy-16α-methyl-3-oxo androsta-1,4-diene-17β-carbothioate, 17-propionate]
- eotaxin-3 mRNA in FP-responder patients (eotaxin-3 mRNA): normalized
- IL-13 mRNA levels in EE responders compared with untreated specimens (IL-13 mRNA): significantly (P<0.01) reduced
- EE disease remission compared with placebo treatment (patients with EE): induces EE disease remission
- EE transcriptome reversed to expression levels of healthy patients (EE transcriptome; patients with EE successfully treated with glucocorticoids): 98%
- genes still dysregulated after treatment (EE transcriptome; successfully treated EE patients, fold change filter 2): 12 genes
- cadherin-26 expression in FP-treated patients with EE (cadherin-26 (CDH26)): residual upregulation
